Holding throughout (format): physicochemical
The test system of data set [1] is mouse IgG anti-AFP. Nature of the data set: Labelling of mouse IgG anti-AFP with dipyrrometheneboron difluoride dyes. Particulars: 10 fold excess of label, phosphate buffered saline pH 7.4, room temperature 2 h. The procedure: To the solution of 1.5 mg (9.3 nmol) of mouse IgG anti-AFP in 400 μl phosphate buffered saline (10/150 mM, pH 7.4) a 10 fold excess (93 nmol) of compound 2, 4, 5 or 6 in anhydrous N,N-dimethylformamide was added. 40 μl of NaHCO3 (1 M, aq) was added and the mixture was incubated at room temperature for 2 h. The products were purified with NAP-5 gel filtration column (Amersham Pharmacia Biotech, Uppsala, Sweden) using phosphate buffered saline (50/150, 10 mM NaN3, pH 7.4) as eluent. The fast moving coloured fractions were collected. […] The labelling degrees of these protein conjugates (compound 4 and 6) were determined spectrophotometrically. Labelling degrees of 2.1 (compound 4) and 2.3 (compound 6) fluorophores per protein were obtained.

The subject of data set [2] is mouse IgG anti-AFP. Nature of the data set: Labelling of mouse IgG anti-AFP with rhodamine 6G labels; absorption spectrum of the conjugate. Conditions: for normal absorption band of labelled mouse IgG anti-AFP: absorption spectrum of IgG conjugate in phosphate buffered saline pH 7.4; for additional absorption band of labelled mouse IgG anti-AFP (non-fluorescent aggregates, hydrophobic interactions): absorption spectrum of IgG conjugate, equi-intense band, absent in excitation spectrum. The procedure: To the solution of 0.28 mg (1.75 nmol) of mouse IgG anti-AFP in 200 μl phosphate buffered saline (10/150 mM, pH 7.4) a 10 fold excess (17.5 nmol) of 5-carboxyrhodamine 6G succinimidyl ester (compound 15, Molecular Probes, Eugene, Oreg.) in anhydrous N,N-dimethylformamide or a 20 fold excess of Glu-Tau-succinimide derivative of 5-carboxyrhodamine 6G in acetonitrile water (reaction mixture of example 14, compound 17) was added. 40 μl of NaHCO3 (1 M, aq) was added and the mixtures were incubated at room temperature for 2 h. The products were purified with NAP-5 gel filtration column (Amersham Pharmacia Biotech, Uppsala, Sweden) using phosphate buffered saline (50/150, 10 mM NaN3, pH 7.4) as eluent. The fast moving coloured fractions were collected.
This additional absorption originates from hydrophobic interactions between the fluorophores and protein or between the two fluorophores. […] These non-fluorescent aggregates are typical for hydrophobic xanthene-type dyes (rhodamines and fluoresceins).

The subject of data set [3] is 5′-aminomodified oligonucleotide. Nature of the data set: Labelling of oligonucleotide; fluorescence yield of labelled oligonucleotide. Conditions: labelled oligonucleotides diluted to equimolar concentrations. The procedure: To the solution of 5′-aminomodified oligonucleotide (17 bases, 28 μg, 5 nmol) in carbonate buffer (200 μl, 100 mM, pH 8.5) a 40 fold excess of labelling reagent (compound 2 or 4) in anhydrous DMF (50 μl) was added. Reaction mixture was incubated at 22° C. for 20 h. The labelled oligonucleotides were purifed by using reverse phase HPLC (RP-18 column) and gradient elution technique. Solvents were A: 2% acetonitrile in triethylammonium acetate buffer (50 mM, pH 7) and B: 70% acetonitrile in triethylammonium acetate buffer (50 mM, pH 7). The gradient started from 5% of solvent B and the amount of solvent B linearly raised to 40% in 25 minutes. Both dye-oligonucleotide conjugates (labelled with compound 2 or with compound 4) eluted between 18 to 22 minutes while the unlabelled oligonucleotide eluted at a timepoint of 10 minutes. The unbound labelling reagent was removed from the column by increasing the amount of solvent B to 100%.
The concentrations of the labelled oligonucleotides were determined spectrophotometrically. […] The labelled oligonucleotides were diluted to equimolar concentrations and the fluorescence yields were determined. […] The higher fluorescence yield of the oligonucleotide labelled with compound 4 can be explained by increased hydrophilicity of the label compound and increased distance between the label and the oligonucleotide.

Take “4,4-difluoro-5-(2-thienyl)-1,3-dimethyl-4-bora-3a,4a-diaza-s-indacene-2-propionic acid succinimidyl ester [compound 2, reference compound]”: in the data set on mouse IgG anti-AFP [1], the “precipitation of the labelled proteins on labelling” value (shortened to “precipitation”) is on record as “almost complete precipitation of the labelled proteins”.

On to “4,4-difluoro-(2-pyrrolyl)-1,3-dimethyl-4-bora-3a,4a-diaza-s-indacene-2-propionic acid succinimidyl ester [compound 5, reference compound]”, for which the “precipitation” value with mouse IgG anti-AFP [1] is “almost complete precipitation of the labelled proteins”. With `CCN=c1cc2oc3cc(NCC)c(C)cc3c(-c3ccc(C(=O)ON4C(=O)CCC4=O)cc3C(=O)O)c-2cc1C` [compound 15, 5-carboxyrhodamine 6G succinimidyl ester, reference compound], in the data set with mouse IgG anti-AFP [2], the “normal absorption band of labelled mouse IgG anti-AFP” value was determined as 530 nm and the “additional absorption band of labelled mouse IgG anti-AFP (non-fluorescent aggregates, hydrophobic interactions)” value is on record as 504 nm. Regarding “Glu-Tau-succinimide derivative of 4,4-difluoro-5-(2-pyrrolyl)-1,3-dimethyl-4-bora-3a,4a-diaza-s-indacene-2-propionic acid [compound 6]”, in the data set on mouse IgG anti-AFP [1], the “precipitation” value is recorded as “proceeded without any problems”. Turning to “Glu-Tau-succinimide derivative of 4,4-difluoro-5-(2-thienyl)-1,3-dimethyl-4-bora-3a,4a-diaza-s-indacene-2-propionic acid [compound 4]”, the “precipitation” value with mouse IgG anti-AFP [1] is listed as “proceeded without any problems”. Further, in data set [3], the “fluorescence yield of labelled oligonucleotide compared with oligonucleotide labelled with compound 2” value was “one order of magnitude higher”. Consider “Glu-Tau-succinimide derivative of 5-carboxyrhodamine 6G [compound 17]”, for which, in the data set on mouse IgG anti-AFP [2], the “normal absorption band of labelled mouse IgG anti-AFP” value turned out to be 530 nm and the “additional absorption band of labelled mouse IgG anti-AFP (non-fluorescent aggregates, hydrophobic interactions)” value is listed as “absence of additional absorption band”.

The values above are taken from patent US7198958B2, “Method for increasing hydrophilicity of fluorescent label compounds” (Arctic Diagnostics Oy, priority 2001, dated 2007).
